Data on 23 compounds can be found in US20250282784A1, “CYTOCHROME BD OXIDASE INHIBITORS AND USES THEREOF” (UNIVERSITY OF NOTRE DAME DU LAC, priority 2022, published 2025).

Bounds are passed on as bounds.

Experiment [1] deals with M. abscessus ATCC 19977T wild-type (WT). As to the kind of experiment: ATP levels in M. abscessus wild-type, 2-fold dose-response. Type of experiment: cell-based, Mycobacterium abscessus. The conditions noted are these: Mycobacteroides abscessus, read-out: ATP IC50 WT. Here is the method:
(§1) The compounds described and provided herein were evaluated for their potential to inhibit Cytochrome BD oxidase in Mycobacterium abscessus. M. abscessus ATCC 19977T wild-type (WT) and deficient for the expression of the cyt-bcc:aa3 (ΔqcrCAB) were treated with a 2-fold dose-response (starting from 40 μM) of the drugs. ATP levels were measured after 6 to 15 hours of incubation using a commercial kit.
(§2) M. abscessus ATCC 19977T wild-type (WT) and deficient for the expression of the cyt-bcc:aa3 (ΔqcrCAB) were treated with a 2-fold dose-response (starting from 40 μM) of the drugs. ATP levels were measured after 6 to 15 hours of incubation using a commercial kit.

The test system of experiment [2] is M. abscessus ATCC 19977T deficient for the expression of the cyt-bcc:aa3 (ΔqcrCAB). The experiment can be described thus: ATP levels in M. abscessus deficient for cyt-bcc:aa3 (ΔqcrCAB), 2-fold dose-response. The format is cell-based, Mycobacterium abscessus. Conditions: Mycobacteroides abscessus, read-out: ATP IC50 ΔgcrCAB. As to the method: as §1, §2
Another experiment has as its system M. abscessus. The experiment can be described thus: Killing of M. abscessus by clofazimine with or without Compound 12 (FIG. 1).

With `Cc1cc2nc(NC3CCCCCCC3)c3ccccc3n2n1` [Compound 9, N-cyclooctyl-2-methylpyrazolo[1,5-a] quinazolin-5-amine], the half-inhibitory concentration (IC50) – broadly, the concentration that gives 50% inhibition – was over 40 µM in experiment [1] and 25.9 µM in experiment [2].

Take `Cc1cc2nc(NC3CCC(C(F)(F)F)CC3)c3ccccc3n2n1` (centres unmarked) [Compound 23, 2-methyl-N-(4-(trifluoromethyl)cyclohexyl) pyrazolo[1,5-a] quinazolin-5-amine]: the IC50 in experiment [1] was over 40 µM; in experiment [2], 9 µM.

In the case of `Cc1cc2nc(NCC3CCCCC3)c3ccccc3n2n1` [Compound 21, N-(cyclohexylmethyl)-2-methylpyrazolo[1,5-a] quinazolin-5-amine], the IC50 in experiment [1] is over 40 µM; in experiment [2], 12.1 µM.

For the compound `Cc1cc2nc(NC3CCCCC3)c3ccccc3n2n1` [Compound 5, N-cyclohexyl-2-methylpyrazolo[1,5-a] quinazolin-5-amine], the values for the IC50 in experiment [1] and in experiment [2] were over 40 µM and 6.89 µM, respectively.

In the case of `Cc1cc2nc(NC3CCC(F)(F)CC3)c3ccccc3n2n1` [Compound 3, N-(4,4-difluorocyclohexyl)-2-methylpyrazolo[1,5-a] quinazolin-5-amine], the IC50 in experiment [1] was over 40 µM; in experiment [2], 20 µM.

Consider `Cc1cc2nc(NCC3CC3)c3ccccc3n2n1` [Compound 22, N-(cyclopropylmethyl)-2-methylpyrazolo[1,5-a] quinazolin-5-amine], for which the IC50 in experiment [1] is over 40 µM; in experiment [2], 19.6 µM.

Take `Cc1cc2nc(NC3CCC(C)CC3)c3ccccc3n2n1` (centres unmarked) [Compound 24, 2-methyl-N-(4-methylcyclohexyl)pyrazolo [1,5-a]quinazolin-5-amine]: the IC50 in experiment [1] was over 40 µM; in experiment [2], 9.2 µM.

For `Cc1cc2nc(N[C@H]3CCC[C@@H](c4ccc(C(F)(F)F)cc4)C3)c3ccccc3n2n1` [Compound 15A, 2-methyl-N-((1S,3R)-3-(4-(trifluoromethyl)phenyl)cyclohexyl)pyrazolo[1,5-a] quinazolin-5-amine], the IC50 in experiment [1] was over 40 µM; in experiment [2], 6.6 µM.

Regarding `Cc1cc2nc(NC3CC4(CCC4)C3)c3ccccc3n2n1` [Compound 17, 2-methyl-N-(spiro[3.3]heptan-2-yl)pyrazolo[1,5-a] quinazolin-5-amine], the values for the IC50 in experiment [1] and in experiment [2] were over 40 µM and 3.2 µM, respectively.

For `Cc1cc2nc(NC3CCCC3)c3ccccc3n2n1` [Compound 8, N-cyclopentyl-2-methylpyrazolo[1,5-a] quinazolin-5-amine], the results for the half-inhibitory concentration (IC50) in experiment [1] and in experiment [2] were over 40 µM and 15.3 µM, respectively.

In the case of `Cc1cc2nc(NC3CCC(C(C)C)CC3)c3ccccc3n2n1` (centres unmarked) [Compound 25], the IC50 in experiment [1] is over 40 µM; in experiment [2] it was 2.6 µM.

As to `Cc1cc2nc(NC3CCC3)c3ccccc3n2n1` [Compound 18, N-cyclobutyl-2-methylpyrazolo[1,5-a] quinazolin-5-amine], the half-maximal inhibitory concentration (IC50) in experiment [1] was over 40 µM; in experiment [2], 9.7 µM.

Consider `Cc1cc2nc(NCc3ccc(N4CCN(c5ccc(F)cc5)CC4)cc3)c3ccccc3n2n1` [Compound 6, N-(4-(4-(4-fluorophenyl)piperazin-1-yl)benzyl)-2-methylpyrazolo[1,5-a] quinazolin-5-amine], for which the IC50 in experiment [1] and in experiment [2] was over 40 µM throughout.

For `Cc1cc2nc(NC3CC(C)(C)CC(C)(C)C3)c3ccccc3n2n1` [Compound 2, 2-methyl-N-(3,3,5,5-tetramethylcyclohexyl) pyrazolo[1,5-a] quinazolin-5-amine], the IC50 in experiment [1] and in experiment [2] was over 40 µM in each case.

Take `Cc1cc2nc(NC3CCC(C(C)(C)C)CC3)c3ccccc3n2n1` (centres unmarked) [Compound 26, N-(4-(tert-butyl)cyclohexyl)-2-methylpyrazolo[1,5-a] quinazolin-5-amine]: the IC50 was over 40 µM in experiment [1] and 4.4 µM in experiment [2].

For `Cc1cc2nc(Cl)c3ccccc3n2n1` [Compound 7, S-chloro-2-methylpyrazolo[1,5-a] quinazoline], the 50% inhibitory concentration (IC50) in experiment [1] and in experiment [2] was over 40 µM in each case.

For `CC(C)/N=c1\cc2n(-c3ccc(Cl)cc3)c3ccccc3nc-2cc1Nc1ccc(Cl)cc1` [clofazimine, reference compound], the “Type of activity of clofazimine against M. abscessus, tested alone” value in the experiment with M. abscessus (clofazimine alone) is “bacteriostatic”. For the same compound, the “Type of activity of clofazimine against M. abscessus in the presence of Compound 12” value in the experiment with M. abscessus (in the presence of Compound 12) was “bactericidal”.

For the compound `Cc1cc2nc(NC3CCCCCC3)c3ccccc3n2n1` [Compound 12, N-cycloheptyl-2-methylpyrazolo[1,5-a] quinazolin-5-amine], the results for the IC50 in experiment [1] and in experiment [2] were over 40 µM and 17.4 µM, respectively. Further, the “Synergy with clofazimine to kill M. abscessus” value with M. abscessus (combination of Compound 12 with clofazimine, FIG. 1) is reported as “synergizes with clofazimine to kill M. abscessus”.

Take `Cc1cc2nc(N[C@@H]3C[C@H]3c3ccc(F)c(F)c3)c3ccccc3n2n1` [Compound 19A, N-((1R,2S)-2-(3,4-difluorophenyl)cyclopropyl)-2-methylpyrazolo[1,5-a] quinazolin-5-amine]: the IC50 in experiment [1] is over 40 µM; in experiment [2], 18.7 µM.

On to `Cc1cc2nc(NC34CC5CC(CC(C5)C3)C4)c3ccccc3n2n1` [Compound 4, N-((3s,5s,7s)-adamantan-1-yl)-2-methylpyrazolo[1,5-a] quinazolin-5-amine], for which the IC50 is over 40 µM in experiment [1] and 9.73 µM in experiment [2].

Regarding `Cc1cc2nc(NCCc3ccc(C(F)(F)F)cc3)c3ccccc3n2n1` [Compound 1, 2-methyl-N-(4-(trifluoromethyl)phenethyl) pyrazolo[1,5-a]quinazolin-5-amine], the IC50 was over 40 µM in experiment [1] and 12.1 µM in experiment [2].

In the case of `FC(F)(F)c1ccc([C@@H]2CCC[C@H](Nc3nc4ccnn4c4ccccc34)C2)cc1` [Compound 16A, N-((1S,3R)-3-(4-(trifluoromethyl)phenyl)cyclohexyl)pyrazolo[1,5-a] quinazolin-5-amine], the IC50 in experiment [1] was over 40 µM; in experiment [2] it was 32.8 µM.

Turning to `Cc1cc2nc(Nc3ccc(Oc4ccc(C(F)(F)F)cc4)cc3)c3ccccc3n2n1` [Compound 14, 2-methyl-N-(4-(4-(trifluoromethyl)phenoxy)phenyl)pyrazolo[1,5-a] quinazolin-5-amine], the 50% inhibitory concentration (IC50) in experiment [1] and in experiment [2] was over 40 µM each time.
